According to PMC9602407, “Purification, Identification and Molecular Docking of Immunomodulatory Peptides from the Heads of Litopenaeus vannamei” (Foods, 2022):
Where a SMILES comes first, the peptide text is derived from it. Where no end group is shown, it is not given here.

What was measured:
pepsin and trypsin = assay: In vitro gastrointestinal digestion stability (pepsin, then trypsin), read out as MRPR; type: in vitro ADME; details: for Maximal increase of MRPR through gastrointestinal digestion compared with the untreated group: 2% (w/w) pepsin pH 2.0 37 °C 2 h, then 2% (w/w) trypsin pH 7.5 37 °C 2 h, 1 mg/mL peptide
Protocol: The macrophages were cultured in a medium (containing 90% DMEM medium, 10% FBS, and 1% double antibody) at 37 °C and 5% CO2. The MRPR was determined following to the MTT assay used by Xu et al.. The density of the log-phase cells was adjusted to 1 × 10^5 cells/mL, and 100 μL/well of cell suspension was seeded in 96-well plates and incubated overnight in an incubator (BB-150-CO2 incubator, Thermo Scientific, Waltham, MA, USA). The perimeter of the 96-well plate was filled with PBS. The old culture medium was then discarded, 200 μL of the sample solution was added (DMEM medium was used to dissolve the sample to the desired concentration), and control and blank groups were set up with DMEM medium. After incubating for 36 h, 200 μL of medium (containing 5% MTT) was added to each well instead of the original medium and cultured in the dark for 4 h. After the supernatant was discarded, 150 μL of DMSO was added, shaken for 20 min at room temperature, and the absorbance was detected at 490 nm by a microplate reader (ELx800, BioTek Instruments, Winooski, VT, USA). The MRPR (%) was calculated using the following formula:Macrophage relative proliferation rate (%) = (A1 − A3)/(A2 − A3) × 100 (1) where A1 and A2 represented the sample solution and DMEM medium with cells (sample and control group), respectively, and A3 represented DMEM medium with no cells (blank group).
For gastrointestinal digestion stability, computer simulated gastrointestinal digestion was first performed using the PeptideCutter (https://web.expasy.org/peptide_cutter/) (accessed on 20 June 2022) with a selection of pepsin (pH > 2) and trypsin. Then, six peptides (10 mg) were dissolved in 10 mL of distilled water, the pH was adjusted to pH 2.0 with 1 M HCl, and then 2% (w/w) pepsin was added and incubated at 37 °C for 2 h to simulate gastric digestion. The pH of the gastric digest was then adjusted to 5.3 with 0.9 M NaHCO3 solution and to pH 7.5 with 1 M NaOH solution. Following this, 2% (w/w) trypsin was added and incubated at 37 °C for 2 h to simulate intestinal digestion. After digestion, the digest was inactivated in a water bath at 100 °C for 10 min, centrifuged at 10,000 r/min for 10 min, and the supernatant was freeze-dried to obtain the gastric intestinal digest of each of the six synthetic peptides. The MRPR was determined using the sample without any treatment as the control.

splenic lymphocytes = tested on: splenic lymphocytes; set-up: method as in doi:10.1016/j.jff.2020.103887; details: 100 μg/mL; cited from earlier work
[1] = set-up: method as in doi:10.1016/j.jff.2020.103887; details: 100 μg/mL; cited from earlier work
TNF-α secretion = tested on: TNF-α secretion; set-up: method as in doi:10.1016/j.jff.2020.103887; details: 100 μg/mL; cited from earlier work

Compound: GPQGPPGH [GPQGPPGH]
- Maximal increase of MRPR through gastrointestinal digestion compared with the untreated group (pepsin and trypsin; read-out MRPR): 4.17%

Compound: CSCC[C@H](NC(=O)CNC(=O)[C@@H]1CCCN1)C(=O)N[C@@H](CCCNC(=N)N)C(=O)O [PGMR] (H-PGMR-OH)
- Change of activity (MRPR) through gastrointestinal digestion, in words (pepsin and trypsin; pepsin then trypsin, 37 °C, 2 h each, versus untreated group): decreased, but was not significantly different

Compound: PSPFPYFT [PSPFPYFT]
- MRPR after the action of pepsin (pepsin and trypsin; 2% (w/w) pepsin, pH 2.0, 37 °C, 2 h, read-out MRPR, mean ± SD): 143.06 ± 7.71%
- MRPR after the action of trypsin (pepsin and trypsin; after pepsin step, 2% (w/w) trypsin, pH 7.5, 37 °C, 2 h, read-out MRPR, mean ± SD): 148.80 ± 0.41%

Compound: RGPPP [Pseudostellaria heterophylla peptide from the literature]
- Stimulation index on splenic lymphocytes (splenic lymphocytes): 1.27
- Cytokinesis rate increased to [1]: 123.81%
- TNF-α secretion upregulated to (TNF-α secretion): 827.24 pg/mL

Compound: SAGFPEGF [SAGFPEGF]
- Increase of MRPR in the gastric digestion (pepsin and trypsin; 2% (w/w) pepsin, pH 2.0, 37 °C, 2 h, versus untreated): 11.23%

Compound: N=C(N)NCCC[C@H](NC(=O)[C@H](CCC(N)=O)NC(=O)[C@@H](N)Cc1c[nH]c2ccccc12)C(=O)O [WQR] (H-Trp-Gln-Arg-OH)
- Maximal increase of MRPR through gastrointestinal digestion compared with the untreated group (pepsin and trypsin; read-out MRPR): 7.36%
